pIC50, pKi: −log10 of the molar value. Counter-ions that a name gives are not always drawn. Like-named read-outs stand apart in the source and are kept apart here.
What was measured:
[1] = target: T1, human 5-HT1A receptor (Homo sapiens, UniProt P08908); assay: HC 5-HT1A affinity (radioligand binding, h5-HT1A.CHO cell membranes)
T1 construct: expressed in transfected cells; membranes
T1 sequence (P08908 1-422): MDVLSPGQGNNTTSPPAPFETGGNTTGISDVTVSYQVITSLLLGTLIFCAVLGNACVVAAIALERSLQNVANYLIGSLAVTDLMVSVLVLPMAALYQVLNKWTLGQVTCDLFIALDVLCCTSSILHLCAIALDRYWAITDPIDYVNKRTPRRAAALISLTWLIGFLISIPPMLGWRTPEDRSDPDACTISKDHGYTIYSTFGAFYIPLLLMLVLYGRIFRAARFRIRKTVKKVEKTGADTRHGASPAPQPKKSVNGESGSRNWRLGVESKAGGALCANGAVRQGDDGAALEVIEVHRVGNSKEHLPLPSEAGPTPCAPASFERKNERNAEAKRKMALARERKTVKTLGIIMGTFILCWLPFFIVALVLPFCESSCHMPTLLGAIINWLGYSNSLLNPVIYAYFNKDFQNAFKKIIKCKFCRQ
Excerpt: The 5-HT1A affinity of compounds of this invention was established in accordance with standard pharmaceutically accepted test procedures with representative compounds as follows:
Cloning of Human 5-HT1A Receptor:
The PCR cloning of the human 5-HT1A receptor subtype from a human genomic library has been described previously (Chanda et al., 1993). A stable Chinese hamster ovary cell line expressing the human 5-HT1A receptor subtype (h5-HT1A.CHO cells) was employed throughout this study. Cells were maintained in DMEM supplemented with 10% fetal calf serum, non-essential amino acids and penicillin/streptomycin.
Cells were grown to 95-100% confluency as a monolayer before membranes were harvested for binding studies. Cells were gently scraped from the culture plates, transferred to centrifuge tubes, and washed twice by centrifugation (2000 rpm for 10 min., 4° C.) in buffer (50 mM Tris; pH 7.5). The resulting pellets were aliquoted and placed at −80° C. On the day of assay, the cells were thawed on ice, and resuspended in buffer. Studies were conducted using [^3H]8-OH-DPAT as the radioligand. The binding assay was performed in 96 well microtiter plates in a final total volume of 250 μL of buffer. Competition experiments were performed by using 7 concentrations of unlabelled drug and a final ligand concentration of 1.5 nM. Non-specific binding was determined in the presence of 10 μM 5-HT. Saturation analysis was conducted by using [^3H]8-OH-DPAT at concentrations ranging from 0.3-30 nM. Following a 30 minute incubation at room temperature, the reaction was terminated by the addition of ice cold buffer and rapid filtration using a M-96 Brandel Cell Harvester (Gaithersburg, Md.) through a GF/B filter presoaked for 30 minutes in 0.5% polyethyleneimine. […]

[2] = target: T2, cloned human 5-HT1A receptors (Homo sapiens, UniProt P08908); assay: [35S]-GTPγS binding to assess agonism/antagonism at the 5-HT1A receptor; type: biochemical
T2 construct: expressed in transfected cells; membranes
T2 sequence (P08908 1-422): T1 sequence (P08908 1-422)
Experimental: Assessment of Agonism/Antagonism at the 5-HT1A Receptor Using [^35S]-GTPγS Binding to Cloned Human 5-HT1A Receptors:
The [^35S]-GTPγS binding assay was similar to that used by Lazareno and Birdsall (Br. J. Pharmacol. 1993, 109, 1120). Briefly, 5-HT1A cloned receptor membrane fragments (as used for 5-HT1A receptor binding assays) were stored at −70° C. until needed. When needed, membranes were rapidly thawed, centrifuged at 40,000×g for 10 minutes and resuspended at 4° C. for 10 minutes in assay buffer (25 mM HEPES, 3 mM MgCl2, 100 mM NaCl, 1 mM EDTA, 10 uM GDP, […], pH 8.0). These membranes were then incubated for 30 min at 30° C. with [^35S]GTPgS (1 nM) in the presence of vehicle, test compound (one to eight concentrations), or excess 8-OH-DPAT to define maximum agonist response. All reactions are terminated by the addition of ice cold Tris buffer followed by rapid filtration using a Tom Tech® filtration device to separate bound from free [ ^35S]GTPgS. Agonists produce an increase in the amount of [^35S]GTPgS bound whereas antagonists produce no increase in binding. Bound radioactivity was counted and analyzed as above.

[3] = two-platform spatial discrimination task; cited from earlier work
[4] = system: rats; conditions: delayed nonmatching to sample radial arm maze task; cited from earlier work
[5] = post-training administration, autoshaping learning task; cited from earlier work
[6] = n=2, membranes of CHO cells expressing human 5-HT1A, read-out: HC 5-HT1A affinity Ki
[7] = n=1, cloned human 5-HT1A receptor membranes
[8] = n=1, cloned human 5-HT1A receptor membranes, read-out: [35S]GTPgS IC50

| SMILES | pKi [1, 6] | [35S]GTPgS Imax [2, 7] [%] | melting point | further results |
| --- | --- | --- | --- | --- |
| CCOc1cccc2c1O[C@@H](CN1C3CCC1CC(O)(c1ccc4ccccc4c1)C3)CO2 (stereo partly drawn) [Example 1, (S)-8-(8-Ethoxy-2,3-dihydro-benzo[1,4]dioxin-2-ylmethyl)-3-naphthalen-2-yl-8-aza-bicyclo[3.2.1]octan-3-ol] | 8.23 | – | – | – |
| COc1cccc2c1O[C@@H](CN1C3CCC1CC(O)(c1ccccn1)C3)CO2 (stereo partly drawn) [Example 8, 8-{[(2S)-8-Methoxy-2,3-dihydro-1,4-benzodioxin-2-yl]methyl}-3-(2-pyridinyl)-8-azabicyclo[3.2.1]octan-3-ol] | 7.34 | 100 | 107 to 110 °C (dec.) | pIC50 [2, 8]: 5.83 |
| CCOc1cccc2c1O[C@@H](CN1C3CCC1CC(O)(c1ccccc1)C3)CO2 (stereo partly drawn) [Example 2, (S)-8-(8-Ethoxy-2,3-dihydro-benzo[1,4]dioxin-2-ylmethyl)-3-phenyl-8-aza-bicyclo[3.2.1]octan-3-ol] | 8.51 | – | 152 to 155 °C | – |
| CCOc1cccc2c1O[C@@H](CN1C3CCC1CC(O)(c1ccc4ccccc4c1)C3)CO2 (stereo partly drawn) (as salt: oxalate) [Example 1, (S)-8-(8-Ethoxy-2,3-dihydro-benzo[1,4]dioxin-2-ylmethyl)-3-naphthalen-2-yl-8-aza-bicyclo[3.2.1]octan-3-ol] | – | – | 126 to 129 °C | – |
| CCOc1cccc2c1O[C@@H](CN1C3CCC1CC(O)(c1ccccn1)C3)CO2 (stereo partly drawn) [Example 4, 8-{[(2S)-8-Ethoxy-2,3-dihydro-benzo[1,4]dioxin-2-yl]methyl)-3-pyridin-2-yl-8-aza-bicyclo[3.2.1]octan-3-ol] | 7.21 | – | 95 to 99 °C | – |
| COc1ccccc1C1(O)CC2CCC(C1)N2C[C@H]1COc2cccc(OC)c2O1 (stereo partly drawn) [Example 6, 8-{[(2S)-8-Methoxy-2,3-dihydro-1,4-benzodioxin-2-yl]methyl}-3-(2-methoxyphenyl)-8-azabicyclo[3.2.1]octan-3-ol] | 7.41 | – | 176 to 178 °C | – |
| CCOc1cccc2c1O[C@@H](CN1C3CCC1CC(O)(c1cccc(C(F)(F)F)c1)C3)CO2 (stereo partly drawn) [Example 5, 8-{[(2S)-8-Ethoxy-2,3-dihydro-benzo[1,4]dioxin-2-yl]methyl)-3-(3-trifluoromethylphenyl)-8-aza-bicyclo[3.2.1]octan-3-ol] | 8.54 | – | 86 to 90 °C | – |
| CCOc1cccc2c1O[C@@H](CN1C3CCC1CC(O)(c1csc4ccccc14)C3)CO2 (stereo partly drawn) [Example 3, (S)-3-Benzo[b]thiophen-3-yl-8-(8-ethoxy-2,3-dihydro-benzo[1,4]dioxin-2-ylmethyl)-8-aza-bicyclo[3.2.1]octan-3-ol] | 7.78 | – | 111 to 114 °C | – |
| COc1ccccc1N1CCN(CCN(C(=O)C2CCCCC2)c2ccccn2)CC1 [WAY-100635] | – | – | – | effect on impairment of spatial learning caused by intrahippocampal injection of CPP [3]: prevented the impairment of spatial learning; effect on cognitive impairment induced by MK801 [4]: significantly reduced the cognitive impairment; effect on learning deficit induced by scopolamine [5]: reversed the learning deficit |
| COc1cccc2c1O[C@@H](CN1C3CCC1CC(O)(c1csc4ccccc14)C3)CO2 (stereo partly drawn) [Example 9, 3-(1-Benzothien-3-yl)-8-{[(2S)-8-methoxy-2,3-dihydro-1,4-benzodioxin-2-yl]methyl}-8-azabicyclo[3.2.1]octan-3-ol] | 8.80 | 100 | 162 to 164 °C | pIC50 [2, 8]: 7.44 |
| COc1cccc2c1O[C@@H](CN1C3CCC1CC(O)(c1ccccc1)C3)CO2 (stereo partly drawn) [Example 10, 8-{[(2S)-8-Methoxy-2,3-dihydro-1,4-benzodioxin-2-yl]methyl}-3-phenyl-8-azabicyclo[3.2.1]octan-3-ol] | – | 100 | 113 to 115 °C | pKi [1]: 8.82; pIC50 [2]: 7.60 |
| COc1cccc2c1O[C@@H](CN1C3CCC1CC(O)(c1ccc4ccccc4c1)C3)CO2 (stereo partly drawn) [Example 11] | – | 100 | 129 to 132 °C | pKi [1]: 9.09; pIC50 [2]: 8.00 |
| COc1cccc2c1O[C@@H](CN1C3CCC1CC(O)(c1cccc(C(F)(F)F)c1)C3)CO2 (stereo partly drawn) [Example 7, 8-{[(2S)-8-Methoxy-2,3-dihydro-1,4-benzodioxin-2-yl]methyl}-3-[3-(trifluoromethyl)phenyl]-8-azabicyclo[3.2.1]octan-3-ol] | 9.48 | – | 104 to 107 °C | – |

Source: patent US6656951B2, “8-aza-bicyclo[3.2.1]octan-3-ol derivatives of 2,3-dihydro-1,4-benzodioxan as 5-HT1A antagonists” (Wyeth, priority 2001, dated 2003)
